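Values below derive from 48-hour exposures of cells grown in 96-well plates, with endpoints linearly interpolated between the two concentrations bracketing the appropriate inhibition level. Abbreviation: GI50, concentration required for 50% inhibition of growth.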 Active and inactive are the calls of the source. No stated cut-off is given here; in the data, active = GI50 up to about 1.1 µM and inactive = higher.
Key:
Assay in all cases: NCI-60 cell line screen, 48 h
SNB-19 = tested on: SNB-19
NCI/ADR-RES = tested on: NCI/ADR-RES
Malme-3M = tested on: Malme-3M
UACC-257 = tested on: UACC-257
CCRF-CEM = tested on: CCRF-CEM
CAKI-1 = tested on: CAKI-1
HOP-92 = tested on: HOP-92
U-251 = tested on: U-251
RXF 393 = tested on: RXF 393
RPMI-8226 = tested on: RPMI-8226
ACHN = tested on: ACHN
UACC-62 = tested on: UACC-62
NCI-H23 = tested on: NCI-H23
K562 = tested on: K562
NCI-H522 = tested on: NCI-H522
NCI-H226 = tested on: NCI-H226
HCC 2998 = tested on: HCC 2998
HCT-15 = tested on: HCT-15
TK-10 = tested on: TK-10
SNB-75 = tested on: SNB-75

| SMILES | GI50 (SNB-19) | GI50 (NCI/ADR-RES) | GI50 (Malme-3M) | GI50 (UACC-257) | GI50 (CCRF-CEM) | GI50 (CAKI-1) | GI50 (HOP-92) | GI50 (U-251) | GI50 (RXF 393) | GI50 (RPMI-8226) | GI50 (ACHN) | GI50 (UACC-62) | GI50 (NCI-H23) | GI50 (K562) | GI50 (NCI-H522) | GI50 (NCI-H226) | GI50 (HCC 2998) | GI50 (HCT-15) | GI50 (TK-10) | GI50 (SNB-75) |
| --- | --- | --- | --- | --- | --- | --- | --- | --- | --- | --- | --- | --- | --- | --- | --- | --- | --- | --- | --- | --- |
| N#Cc1nnc2c3c(-c4ccc(Cl)cc4)c(C#N)c(O)nc3nn2c1N | 3.25 µM (inactive) | 18.4 µM (inactive) | 14.4 µM (inactive) | 15.4 µM (inactive) | 3.63 µM (inactive) | 5.6 µM (inactive) | 5.2 µM (inactive) | 1.28 µM (inactive) | 3.98 µM (inactive) | 8.05 µM (inactive) | 8.11 µM (inactive) | 1.85 µM (inactive) | 5.81 µM (inactive) | 7.33 µM (inactive) | 1.62 µM (inactive) | 9.55 µM (inactive) | 3.14 µM (inactive) | 8.83 µM | 22.6 µM (inactive) |  |
| C=C1CC(O)C2C(=C)C(=O)OC2C2C(C)C(=O)CC12 (configuration not stated) | 18.8 µM (inactive) | 18.4 µM (inactive) | 12 µM (inactive) | 12.6 µM (inactive) | 4.08 µM (inactive) | 4.57 µM (inactive) | 13 µM (inactive) | 23 µM (inactive) | 4.73 µM (inactive) | 14 µM (inactive) | 5.32 µM (inactive) | 15.3 µM (inactive) | 16 µM (inactive) | 5.98 µM (inactive) | 5.16 µM (inactive) |  | 20 µM (inactive) | 4.82 µM | 4.82 µM (inactive) | 15.1 µM (inactive) |
| CC(C)[C@H](C)/C=C/[C@@H](C)C1CC[C@H]2[C@@]34C=C[C@]5(C[C@@H](O)CC[C@]5(C)[C@H]3CC[C@]12C)OO4 (some centres not stated) | 27.9 µM (inactive) | 19.1 µM (inactive) |  | > 100 µM (inactive) |  | 22.5 µM (inactive) | 32.4 µM (inactive) | 24.3 µM (inactive) | 44.5 µM (inactive) |  | 37.4 µM (inactive) | 17.1 µM (inactive) | 27.3 µM (inactive) |  |  | 22.2 µM (inactive) | 21.9 µM (inactive) | 32.8 µM | 42 µM (inactive) | 30.3 µM (inactive) |
| CCOC(=O)c1nc2cc(C(F)(F)F)ccc2nc1Nc1ccc(OC)c(OC)c1 | > 100 µM (inactive) | > 100 µM (inactive) | > 100 µM (inactive) | > 100 µM (inactive) | > 100 µM (inactive) | > 100 µM (inactive) | > 100 µM (inactive) |  | > 100 µM (inactive) | > 100 µM (inactive) | > 100 µM (inactive) | > 100 µM (inactive) | > 100 µM (inactive) | > 100 µM (inactive) | > 100 µM (inactive) |  | > 100 µM (inactive) | > 100 µM | > 100 µM (inactive) | 50.9 µM (inactive) |
| CO/C(=N\N=C\c1ccc(C(F)(F)F)cc1)c1ccncc1 | > 10 µM (inactive) | > 10 µM (inactive) | > 10 µM (inactive) | > 10 µM (inactive) | > 10 µM (inactive) | > 10 µM (inactive) | > 10 µM (inactive) | > 10 µM (inactive) | > 10 µM (inactive) | > 10 µM (inactive) | > 10 µM (inactive) |  | > 10 µM (inactive) | > 10 µM (inactive) | > 10 µM (inactive) | > 10 µM (inactive) | > 10 µM (inactive) | > 10 µM | > 10 µM (inactive) |  |
| CCn1c(-c2cc3ccccc3cc2OC(C)=O)n[nH]c1=S |  | 21.2 µM (inactive) |  | 24.2 µM (inactive) | 1.16 µM (inactive) | 30.8 µM (inactive) | 58.1 µM (inactive) | 20.2 µM (inactive) | 11.1 µM (inactive) | 18.7 µM (inactive) | 35.8 µM (inactive) |  | 30.5 µM (inactive) | 14.5 µM (inactive) | 16.1 µM (inactive) | 38.6 µM (inactive) | 18 µM (inactive) | 27 µM | 27.4 µM (inactive) |  |
| CSc1ccccc1NC1=NCCO1 | > 100 µM (inactive) | > 100 µM (inactive) | > 100 µM (inactive) | > 100 µM (inactive) | > 100 µM (inactive) | > 100 µM (inactive) | > 100 µM (inactive) | > 100 µM (inactive) | > 100 µM (inactive) | > 100 µM (inactive) | > 100 µM (inactive) | > 100 µM (inactive) | > 100 µM (inactive) | > 100 µM (inactive) | > 100 µM (inactive) | > 100 µM (inactive) | > 100 µM (inactive) | > 100 µM | > 100 µM (inactive) |  |
| CC(NC(=O)C(N)CC(=O)O)C(=O)OC12CC3CC(CC(C3)C1)C2 (configuration not stated) | > 100 µM (inactive) | > 100 µM (inactive) |  | > 100 µM (inactive) | > 100 µM (inactive) | > 100 µM (inactive) | > 100 µM (inactive) | > 100 µM (inactive) | > 100 µM (inactive) | > 100 µM (inactive) | > 100 µM (inactive) | > 100 µM (inactive) | > 100 µM (inactive) | > 100 µM (inactive) | > 100 µM (inactive) |  | > 100 µM (inactive) | > 100 µM | > 100 µM (inactive) | > 100 µM (inactive) |
| OCCSCc1cc2c(O)c(c1)Cc1cc(CSCCO)cc(c1O)Cc1cc(CSCCO)cc(c1O)Cc1cc(CSCCO)cc(c1O)C2 | 4.69 µM (inactive) | 22.2 µM (inactive) | 2.04 µM (inactive) | 4.23 µM (inactive) | 5.35 µM (inactive) | 3.1 µM (inactive) | 4.26 µM (inactive) | 4.48 µM (inactive) | 4.58 µM (inactive) | 3.95 µM (inactive) | 3.19 µM (inactive) |  | 5.37 µM (inactive) | 7.28 µM (inactive) | 2.18 µM (inactive) | 10.4 µM (inactive) | 9.38 µM (inactive) | 8.81 µM | 4.8 µM (inactive) |  |
| NC(N)=NCc1ccc2c(c1)OCO2 | > 100 µM (inactive) | > 100 µM (inactive) | 31.1 µM (inactive) |  | 94 µM (inactive) | 44.9 µM (inactive) | 54.1 µM (inactive) | > 100 µM (inactive) | 55.3 µM (inactive) | 74 µM (inactive) | 65.5 µM (inactive) | > 100 µM (inactive) | 61.1 µM (inactive) | > 100 µM (inactive) | > 100 µM (inactive) |  | > 100 µM (inactive) | > 100 µM | > 100 µM (inactive) | > 100 µM (inactive) |
| CCOc1ccc2c(c1)c(CC(=O)O)cn2C | > 100 µM (inactive) | > 100 µM (inactive) | > 100 µM (inactive) | > 100 µM (inactive) | > 100 µM (inactive) | > 100 µM (inactive) | 45.6 µM (inactive) | > 100 µM (inactive) | > 100 µM (inactive) | > 100 µM (inactive) | > 100 µM (inactive) | > 100 µM (inactive) | > 100 µM (inactive) | > 100 µM (inactive) | > 100 µM (inactive) | > 100 µM (inactive) | > 100 µM (inactive) | > 100 µM | > 100 µM (inactive) |  |

— ChEMBL document CHEMBL1201862, “PubChem BioAssay data set” (2004)
